Assay results from US20260242343A1, “COMPOUND SERVING AS DDR1 KINASE INHIBITOR, AND MEDICINE” (NIPPON SHINYAKU CO., LTD., priority 2022, published 2026).
Structures can show the parent of a compound that is named as a salt.

Assays:
DDR1 protein = target: T1, DDR1 protein (Homo sapiens, UniProt Q08345); assay: Evaluation of DDR1 kinase inhibitory activity (LANCE Ultra TR-FRET); format: biochemical; settings: DDR1 protein 0.5 nM, ATP 100 μM, 2 hours at room temperature; read-out: DDR-1 IC50
T1 construct: purchased Carna Biosciences 08-113
T1 sequence (Q08345 19-876 isoform Q08345-2 limits assumed): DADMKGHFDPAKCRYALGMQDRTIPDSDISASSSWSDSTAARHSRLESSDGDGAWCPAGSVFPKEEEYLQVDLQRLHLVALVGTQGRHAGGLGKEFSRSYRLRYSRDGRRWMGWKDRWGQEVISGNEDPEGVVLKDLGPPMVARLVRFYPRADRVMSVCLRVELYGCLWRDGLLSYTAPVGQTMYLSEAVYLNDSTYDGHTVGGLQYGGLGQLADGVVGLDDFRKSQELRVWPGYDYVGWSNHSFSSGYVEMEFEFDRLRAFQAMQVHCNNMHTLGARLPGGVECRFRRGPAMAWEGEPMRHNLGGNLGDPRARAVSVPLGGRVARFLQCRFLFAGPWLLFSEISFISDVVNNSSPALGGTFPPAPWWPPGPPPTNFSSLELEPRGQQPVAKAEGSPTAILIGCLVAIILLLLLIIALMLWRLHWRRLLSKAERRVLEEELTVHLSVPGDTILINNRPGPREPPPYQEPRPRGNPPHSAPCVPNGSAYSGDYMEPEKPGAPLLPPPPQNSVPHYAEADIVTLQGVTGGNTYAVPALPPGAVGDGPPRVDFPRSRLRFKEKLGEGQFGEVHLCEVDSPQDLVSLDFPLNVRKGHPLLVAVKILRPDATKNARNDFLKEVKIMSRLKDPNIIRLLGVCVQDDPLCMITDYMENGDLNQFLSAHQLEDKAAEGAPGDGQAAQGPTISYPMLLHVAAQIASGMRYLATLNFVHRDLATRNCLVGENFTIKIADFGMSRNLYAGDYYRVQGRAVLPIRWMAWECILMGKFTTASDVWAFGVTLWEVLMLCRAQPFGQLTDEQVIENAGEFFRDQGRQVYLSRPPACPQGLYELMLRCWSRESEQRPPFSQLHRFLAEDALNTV
Procedure: The test was performed in duplicate.

[1] = target: T2, DDR1 kinase in DDR1-expressing U2OS cells (Homo sapiens, UniProt Q08345); assay: DDR1 kinase inhibitory effect in DDR1-expressing U2OS cells (PathHunter, type I collagen stimulation); format: cell-based; settings: type I collagen 50 μg/mL, 10% FBS, read-out: DDR-1 IC50
T2 construct: host or cells: U2OS
T2 sequence (Q08345 19-913): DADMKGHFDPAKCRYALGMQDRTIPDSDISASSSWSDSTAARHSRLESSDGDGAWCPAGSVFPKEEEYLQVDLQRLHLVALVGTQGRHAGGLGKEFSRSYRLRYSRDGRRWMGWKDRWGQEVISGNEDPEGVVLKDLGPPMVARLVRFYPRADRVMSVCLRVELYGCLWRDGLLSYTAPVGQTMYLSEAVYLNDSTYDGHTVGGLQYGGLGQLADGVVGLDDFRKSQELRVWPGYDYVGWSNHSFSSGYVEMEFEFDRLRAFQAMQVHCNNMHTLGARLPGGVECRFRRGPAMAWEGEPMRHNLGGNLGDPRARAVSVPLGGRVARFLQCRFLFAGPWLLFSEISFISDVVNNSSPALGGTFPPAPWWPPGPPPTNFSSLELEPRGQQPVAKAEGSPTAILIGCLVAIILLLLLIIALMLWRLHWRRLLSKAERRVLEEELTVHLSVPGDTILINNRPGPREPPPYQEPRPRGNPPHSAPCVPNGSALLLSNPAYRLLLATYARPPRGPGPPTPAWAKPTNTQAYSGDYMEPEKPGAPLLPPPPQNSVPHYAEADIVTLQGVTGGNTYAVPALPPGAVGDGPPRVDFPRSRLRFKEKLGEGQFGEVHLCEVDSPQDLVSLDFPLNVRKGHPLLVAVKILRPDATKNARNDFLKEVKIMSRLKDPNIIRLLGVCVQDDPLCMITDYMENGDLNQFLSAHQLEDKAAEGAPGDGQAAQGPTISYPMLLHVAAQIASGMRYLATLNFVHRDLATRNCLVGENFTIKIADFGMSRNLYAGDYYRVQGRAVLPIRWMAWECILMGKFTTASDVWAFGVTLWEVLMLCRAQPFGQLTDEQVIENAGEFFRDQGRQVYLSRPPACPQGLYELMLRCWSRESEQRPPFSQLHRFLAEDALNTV
Procedure: Test compounds in DMSO were prepared at 10 mM and diluted with DMSO to final concentrations of 1000, 100, 10, 1, and 0.1 μM. These solutions were diluted further with E-MEM medium (Fujifilm Wako Pure Chemical Industries, 051-07615) containing 10% fetal bovine serum (FBS, Gibco, 10270106) to 60,000, 6,000, 600, 60, 6, and 0.6 nM to obtain test sample solutions.
DDR1-expressing U2OS cells (DiscoverX, 93-0894C3) suspended at 2.5×10^5 cells/mL in 10% FBS+E-MEM medium were seeded in 384-well plates (DiscoverX, 92-0013) in 20 μL portions and cultured overnight at 37° C. and 5% CO2.
The next day, the test sample solutions as prepared were added at 5 μL/well to final concentrations of 10,000, 1,000, 100, 10, 1, and 0.1 nM. After incubation at 37° C. and 5% CO2 for 1 hour, type I collagen (Nitta Gelatin, 631-00771) was added at 5 μL/well to a final concentration of 50 μg/mL, and cultured overnight at 37° C. and 5% CO2.
The next day, the plate was left at room temperature for 1 hour, after which 5 μL/well of detection solution was added according to the instruction manual for the PathHunter (registered trademark) Detection Kit (DiscoverX, 93-0001). […] The test was performed in duplicate.

SMILES: Nc1ncc(/C(F)=C/c2cc(C(=O)N[C@H]3CC(F)(F)CC[C@@H]3O)ccc2OC(F)F)cn1 [Example 37, 3-[(1Z)-2-(2-Aminopyrimidin-5-yl)-2-fluoroethenyl]-N-[(1S,2S)-5,5-difluoro-2-hydroxycyclohexyl]-4-(difluoromethoxy)benzamide]
- IC50 (DDR1 protein): 15 nM
- IC50 [1]: 40 nM

SMILES: CCc1ncc(C(=O)N[C@H]2C[C@H](OC(F)(F)F)C[C@@H]2O)cc1/C=C(\F)c1cnc(N)nc1 [Example 11, 5-[(1Z)-2-(2-Aminopyrimidin-5-yl)-2-fluoroethenyl]-6-ethyl-N-[(1S,2S,4S)-2-hydroxy-4-(trifluoromethoxy)cyclopentyl]pyridine-3-carboxamide]
- IC50 (DDR1 protein): 22 nM
- IC50 [1]: 120 nM

SMILES: Nc1ncc(C#Cc2cc(C(=O)N[C@H]3CC(F)(F)CC[C@@H]3O)ccc2OC(F)F)cn1 [Example 20, 3-[2-(2-Aminopyrimidin-5-yl)ethynyl]-N-[(1S,2S)-5,5-difluoro-2-hydroxycyclohexyl]-4-(difluoromethoxy)benzamide p-toluenesulfonate]
- IC50 (DDR1 protein): 3.1 nM
- IC50 [1]: 16 nM

SMILES: Nc1cnc(/C(F)=C/c2cc(C(=O)N[C@H]3CC4(CC4)C[C@@H]3O)ccc2OC(F)F)cn1 [Example 26, 3-[(1Z)-2-(5-Aminopyrazin-2-yl)-2-fluoroethenyl]-4-(difluoromethoxy)-N-[(5S,6S)-6-hydroxyspiro[2.4]heptan-5-yl]benzamide]
- IC50 (DDR1 protein): 5.1 nM
- IC50 [1]: 20 nM

SMILES: CCc1ccc(C(=O)N[C@H]2C[C@H](OC(F)(F)F)C[C@@H]2O)cc1NC(=O)c1cncc(-c2cccc(F)c2)c1 [Example 33, N-(2-Ethyl-5-{[(1S,2S,4S)-2-hydroxy-4-(trifluoromethoxy)cyclopentyl]carbamoyl}phenyl)-5-(3-fluorophenyl)pyridine-3-carboxamide]
- IC50 (DDR1 protein): 1.8 nM
- IC50 [1]: 7.4 nM

SMILES: CCc1ccc(C(=O)N[C@H]2C[C@H](OC(F)(F)F)C[C@@H]2O)cc1NC(=O)c1cnc(C2CC2)s1 [Example 46, 2-Cyclopropyl-N-(2-ethyl-5-{[(1S,2S,4S)-2-hydroxy-4-(trifluoromethoxy)cyclopentyl]carbamoyl}phenyl)-1,3-thiazole-5-carboxamide]
- IC50 (DDR1 protein): 9.1 nM
- IC50 [1]: 44 nM

SMILES: Nc1ncc(/C=C(\F)c2cc(C(=O)N[C@H]3C[C@H](OC(F)(F)F)C[C@@H]3O)ccc2OC(F)F)cn1 [Example 39, 3-[(1Z)-2-(2-Aminopyrimidin-5-yl)-1-fluoroethenyl]-4-(difluoromethoxy)-N-[(1S,2S,4S)-2-hydroxy-4-(trifluoromethoxy)cyclopentyl]benzamide]
- IC50 (DDR1 protein): 0.39 nM
- IC50 [1]: 3.9 nM

SMILES: Nc1ncc(C#Cc2cc(C(=O)N[C@H](CO)Cc3ccc(Cl)cc3)ccc2OC(F)F)cn1 [Example 35, 3-[2-(2-Aminopyrimidin-5-yl)ethynyl]-N-[(2S)-1-(4-chlorophenyl)-3-hydroxypropan-2-yl]-4-(difluoromethoxy)benzamide hydrochloride]
- IC50 (DDR1 protein): 3.3 nM
- IC50 [1]: 12 nM

SMILES: NC(=O)c1ncc2cc(-c3cc(C(=O)N[C@H](CO)CCOC(F)(F)F)cnc3C(F)(F)F)ccn12 [Example 30, 5-{3-Carbamoylimidazo[1,5-a]pyridin-7-yl}-N-[(2S)-1-hydroxy-4-(trifluoromethoxy)butan-2-yl]-6-(trifluoromethyl)pyridine-3-carboxamide]
- IC50 (DDR1 protein): 18 nM
- IC50 [1]: 78 nM

SMILES: Nc1ncc(/C(F)=C/c2cc(C(=O)N[C@H](CO)c3cccc(F)c3)ccc2OC(F)F)cn1 [Example 34, 3-[(1Z)-2-(2-Aminopyrimidin-5-yl)-2-fluoroethenyl]-4-(difluoromethoxy)-N-[(1S)-1-(3-fluorophenyl)-2-hydroxyethyl]benzamide]
- IC50 (DDR1 protein): 8.2 nM
- IC50 [1]: 44 nM

SMILES: Cn1cc(C#Cc2cc(C(=O)N[C@H](CO)CCOC(F)(F)F)ccc2OC(F)F)cn1 [Example 24, 4-(Difluoromethoxy)-N-[(2S)-1-hydroxy-4-(trifluoromethoxy)butan-2-yl]-3-[2-(1-methyl-1H-pyrazol-4-yl)ethynyl]benzamide]
- IC50 (DDR1 protein): 36 nM
- IC50 [1]: 97 nM

SMILES: CCc1ccc(C(=O)N[C@H]2C[C@H](OC(F)(F)F)C[C@@H]2O)cc1NC(=O)c1cnc(CC2CC2)s1 [Example 17, 2-(Cyclopropylmethyl)-N-(2-ethyl-5-{[(1S,2S,4S)-2-hydroxy-4-(trifluoromethoxy)cyclopentyl]carbamoyl}phenyl)-1,3-thiazole-5-carboxamide]
- IC50 (DDR1 protein): 1.6 nM
- IC50 [1]: 17 nM

SMILES: CCc1ccc(C(=O)N[C@H](CO)CCOC(F)(F)F)cc1NC(=O)c1cnc(CC2CC2)s1 [Example 47, 2-(Cyclopropylmethyl)-N-(2-ethyl-5-{[(2S)-1-hydroxy-4-(trifluoromethoxy)butan-2-yl]carbamoyl}phenyl)-1,3-thiazole-5-carboxamide]
- IC50 (DDR1 protein): 51 nM
- IC50 [1]: 59 nM

SMILES: COc1nc(N)ncc1C#Cc1cc(C(=O)N[C@H]2CC3(CC3)C[C@@H]2O)ccc1OC(F)F [Example 23, 3-[2-(2-Amino-4-methoxypyrimidin-5-yl)ethynyl]-4-(difluoromethoxy)-N-[(5S,6S)-6-hydroxyspiro[2.4]heptan-5-yl]benzamide]
- IC50 (DDR1 protein): 0.25 nM
- IC50 [1]: 4.1 nM

SMILES: NC(=O)c1ncc2cc(-c3cc(C(=O)N[C@H]4C[C@H](OC(F)(F)F)C[C@@H]4O)ccc3C(F)(F)F)ccn12 [Example 29, 7-(5-{[(1S,2S,4S)-2-Hydroxy-4-(trifluoromethoxy)cyclopentyl]carbamoyl}-2-(trifluoromethyl)phenyl)imidazo[1,5-a]pyridine-3-carboxamide]
- IC50 (DDR1 protein): 0.81 nM
- IC50 [1]: 3.1 nM

SMILES: CCc1ccc(C(=O)N[C@H](CO)CCOC(F)(F)F)cc1NC(=O)c1cnc(NCC2CC2)s1 [Example 44, 2-[(Cyclopropylmethyl)amino]-N-(2-ethyl-5-{[(2S)-1-hydroxy-4-(trifluoromethoxy)butan-2-yl]carbamoyl}phenyl)-1,3-thiazole-5-carboxamide]
- IC50 (DDR1 protein): 9.4 nM
- IC50 [1]: 15 nM

SMILES: NC(=O)c1ncc2cc(-c3cc(C(=O)N[C@H]4C[C@H](OC(F)(F)F)C[C@@H]4O)cnc3C(F)(F)F)ccn12 [Example 15, 5-{3-Carbamoylimidazo[1,5-a]pyridin-7-yl}-N-[(1S,2S,4S)-2-hydroxy-4-(trifluoromethoxy)cyclopentyl]-6-(trifluoromethyl)pyridine-3-carboxamide]
- IC50 (DDR1 protein): 2.2 nM
- IC50 [1]: 14 nM

SMILES: NC(=O)c1ncc2cc(-c3cc(C(=O)N[C@H](CO)CCOC(F)(F)F)ccc3C(F)(F)F)ccn12 [Example 31, 7-(5-{[(2S)-1-Hydroxy-4-(trifluoromethoxy)butan-2-yl]carbamoyl}-2-(trifluoromethyl)phenyl)imidazo[1,5-a]pyridine-3-carboxamide]
- IC50 (DDR1 protein): 2.2 nM
- IC50 [1]: 5.3 nM

SMILES: CCc1ccc(C(=O)N[C@H](CO)CCOC(F)(F)F)cc1NC(=O)c1cncc(OCC2CC2)c1 [Example 43, 5-(Cyclopropylmethoxy)-N-(2-ethyl-5-{[(2S)-1-hydroxy-4-(trifluoromethoxy)butan-2-yl]carbamoyl}phenyl)pyridine-3-carboxamide]
- IC50 (DDR1 protein): 68 nM
- IC50 [1]: 240 nM

SMILES: Nc1cnc(/C(F)=C/c2cc(C(=O)N[C@H]3CC(F)(F)CC[C@@H]3O)ccc2OC(F)F)cn1 [Example 25, 3-[(1Z)-2-(5-Aminopyrazin-2-yl)-2-fluoroethenyl]-N-[(1S,2S)-5,5-difluoro-2-hydroxycyclohexyl]-4-(difluoromethoxy)benzamide]
- IC50 (DDR1 protein): 1.7 nM
- IC50 [1]: 19 nM

SMILES: COc1cncc(/C=C(\F)c2cc(C(=O)N[C@H]3C[C@H](OC(F)(F)F)C[C@@H]3O)cc(F)c2OC(F)F)c1 [Example 13, 4-(Difluoromethoxy)-3-fluoro-5-[(1Z)-1-fluoro-2-(5-methoxypyridin-3-yl)ethenyl]-N-[(1S,2S,4S)-2-hydroxy-4-(trifluoromethoxy)cyclopentyl]benzamide]
- IC50 (DDR1 protein): 0.87 nM
- IC50 [1]: 1.9 nM

SMILES: CCc1ccc(C(=O)N[C@H]2C[C@H](OC(F)(F)F)C[C@@H]2O)cc1NC(=O)c1cnc(-c2ccccc2)o1 [Example 16, N-(2-Ethyl-5-{[(1S,2S,4S)-2-hydroxy-4-(trifluoromethoxy)cyclopentyl]carbamoyl}phenyl)-2-phenyl-1,3-oxazole-5-carboxamide]
- IC50 (DDR1 protein): 7.5 nM
- IC50 [1]: 13 nM

SMILES: NC(=O)c1ncc2cc(-c3cc(C(=O)N[C@H]4CC(F)(F)CC[C@@H]4O)ccc3C(F)(F)F)ccn12 [Example 27, 7-(5-{[(1S,2S)-5,5-Difluoro-2-hydroxycyclohexyl]carbamoyl}-2-(trifluoromethyl)phenyl)imidazo[1,5-a]pyridine-3-carboxamide]
- IC50 (DDR1 protein): 4 nM
- IC50 [1]: 10 nM

SMILES: CCc1ccc(C(=O)N[C@H]2C[C@H](OC(F)(F)F)C[C@@H]2O)cc1NC(=O)c1cncc(OCC2CC2)c1 [Example 42, 5-(Cyclopropylmethoxy)-N-(2-ethyl-5-{[(1S,2S,4S)-2-hydroxy-4-(trifluoromethoxy)cyclopentyl]carbamoyl}phenyl)pyridine-3-carboxamide]
- IC50 (DDR1 protein): 1.6 nM
- IC50 [1]: 54 nM
